Two molecules from US20110311643A1, “SUPPLEMENTED MATRICES FOR THE REPAIR OF BONE FRACTURES” (Kuros Biosurgery AG, priority 2005, published 2011) can be followed below.

Data set [1] in a line: Stability of PTH / TGPTH in buffer (spiked samples, direct ELISA). The format is physicochemical. The conditions noted are these: 0.5 μg/mL; 37° C.; distilled water, phosphate buffer saline, tris-buffer saline. The method, then:
For the first release assay a fibrin matrix of 50 μl with 0.1 mg PTH or TGPTH per ml fibrin matrix was incubated at 37° C. in 10 ml buffer. Therefore, the concentration of PTH or TGPTH in the buffer in case of a total release would be 0.5 μg PTH or TGPTH/mL fibrin matrix. In order to compare the stability of PTH or TGPTH during the assay, samples of PTH or TGPTH were diluted directly in the buffer to a concentration of 0.5 μg PTH or TGPTH/mL fibrin matrix. Different buffers were tested: distilled water, phosphate buffer saline, tris-buffer saline.
Aliquots were taken at days 0, 1, 2, 4 and 6 and analysed by direct ELISA. […] Therefore, no conclusion could be made on the release data. The PTH stability was certainly affected by its low concentration and the buffers that were not optimal.
The release experiment was repeated by using a stabilizing buffer containing 50 mM mannitol in a 10 mM sodium acetate buffer. In addition, the buffer was exchanged every 2 days in order to prevent any degradation of peptide. […] The concentration of PTH or TGPTH in the buffer in case of a total release would be 100 μg/mL fibrin matrix (200 times more than before). […] Samples were collected every 2 to 4 days (with a change of buffer) during 2 weeks and analysed by direct ELISA. […]
A general note: In an ELISA, binding on a coated surface is turned into a signal by an enzyme label.

Data set [2] relates to 1 cm segmental tibial defect. As to the kind of experiment: Sheep tibial defect model, supplemented fibrin matrix with TCP granules. The format is in vivo. As for the experimental part:
The fibrin matrix was formed starting from the TISSEEL® Kit (Baxter AG, CH-8604 Volketswil/ZH) giving 4 mL fibrin matrix. TISSEEL® is produced from human derived pooled plasma and the content of active ingredients may vary from lot to lot within predefined ranges.
Matrix: A supplemented fibrin matrix containing granular material and PTH fusion peptide (TGplPTH1-34) was prepared using 3 separate syringes, a two-way syringe containing fibrin precursor solution and PTH fusion peptide (syringes 1 and 2) and two one-way syringes, one containing water and the other containing granules (syringes 3 and 4).
First the hydroxyapatite/calcium phosphate granules in syringe 4 were wetted by injection of the water of syringe 3. The fibrin precursor solution of syringe 1 (fibrinogen and TGplPTH1-34 suspended in a solution with aprotinin, a serine proteinase inhibitor which helps reduce fibrolysis to retain the integrity of the fibrin matrix) was mixed with the fibrin precursor solution of syringe 2 (thrombin in a calcium chloride solution). TGplPTH1-34 was formulated into the fibrinogen component to give a final concentration in the matrix varying from of 0.1 mg/mL to 10 mg/mL of the fibrin matrix and during the gelation process TGplPTH1-34 became crosslinked to the matrix. Fibrin precursor solutions also contained other components of fibrin matrix, such as plasma fibronectin, Factor XIIIa, plasminogen, and human albumin. When the precursor solutions are in equal volumes, a clotting process occurs to form fibrin. The clotting process takes place over several minutes which allows for the simultaneous injection of the mixed solutions into syringe 4, which contain the wetted granules. The matrix can then be introduced at the site of need where it solidifies. Enough matrix was placed in the defect to completely fill it.
Animals: A total of 42 Swiss Alpine, female sheep ranging between 44-83 kg (mean: 62.8 kg) and 2.25-4.75 years of age were chosen as experimental animals. Seven groups were formed with autografts as positive and fibrin matrix plus TCP granules as negative controls. The other groups consisted of the same fibrin matrix and TCP granules, but differed only in dosage of the TGplPTH1-34. Groups were followed for 12 weeks, when animals were sacrificed at a university-owned slaughter house. All animal experiments were conducted according to the Swiss laws of animal protection and welfare and were authorized by the local Ethical Committee and Veterinary Authorities.
Surgery: A medial approach to the tibia shaft was performed directly above the bone and extending from the distal aspect of the stifle to the hock joint, the medial fascia of the tibia was incised and the medial aspect of the tibia exposed without disturbing the periosteum. A 11 hole, 3.5 mm broad dynamic compression plate (Synthes) was contoured to the shaft with the distal end of the plate ending above the tibiotarsal joint. The plate was fixed to the bone using eleven 3.5 mm screws in a neutral position and distributing five screw holes distally and six proximally to the planned defect. The screws and plate were removed. Thereafter, the defect was marked on the bone with a scalpel blade using a gage ensuring a standardized 1 cm defect between the 5th and 6th screw hole. With an oscillating saw, the defect was cut under constant irrigation and preservation of soft tissues. The 1 cm segment including the circumferential periosteum was carefully removed and local bleeding out of the bone marrow or local soft tissue was stopped applying pressure with a gauze. The plate was repositioned and all screws reinserted before the matrix was filled into the bone gap as described above. Care was taken to distribute the matrix equally underneath the plate, on the lateral and as well as the transcortex.
For the positive autograft control group, autogenic bone was harvested through a local incision directly above the iliac crest. […]

Data set [3] has as its system acute, open tibial shaft fractures. In words: Phase II clinical study of I-040202 in tibial shaft fractures. As to conditions: Intent-to-Treat. The format is in vivo, patients. The source says: This was a Phase II, prospective, randomized, controlled, open-label (dose-blinded), parallel-group, multi-center clinical study of the efficacy and safety of TGplPTH1-34 in a matrix made of fibrin (I-040202) in patients with acute, open tibial shaft fractures. The supplemented matrix was applied directly to the fracture site in the form of a paste. A total of 200 patients were randomized and treated in 31 centers across Europe.
The study consisted of four study groups: one control group using standard of care (SoC) which included intramedullary nailing and soft tissue management, and three treatment groups using 4 mL of I-040202 containing TGplPTH1-34 at concentrations of 0.133, 0.4 and 1.0 mg/mL fibrin matrix respectively (different concentrations of TGplPTH1-34), as an adjunct to SoC. Patients followed up clinically and radiologically on a monthly basis until 6 months post-surgery, and thereafter at 9 and 12 months post-surgery.
The primary endpoint was the proportion of patients who had fracture healing at 6 months as assessed by the investigator using radiographic and clinical parameters. Three doses of I-040202 in combination with SoC were compared against SoC alone.

Where [4] appears, read: 1 mg TGplPTH1-34/mL fibrin matrix.

Marks after values point to notes of the source that are not given here.

Turning to `CC[C@H](C)[C@H](NC(=O)[C@H](CCC(=O)O)NC(=O)[C@H](CO)NC(=O)[C@@H](NC(=O)[C@@H](N)CO)C(C)C)C(=O)N[C@@H](CCC(N)=O)C(=O)N[C@@H](CC(C)C)C(=O)N[C@@H](CCSC)C(=O)N[C@@H](Cc1cnc[nH]1)C(=O)N[C@@H](CC(N)=O)C(=O)N[C@@H](CC(C)C)C(=O)NCC(=O)N[C@@H](CCCCN)C(=O)N[C@@H](Cc1cnc[nH]1)C(=O)N[C@@H](CC(C)C)C(=O)N[C@@H](CC(N)=O)C(=O)N[C@@H](CO)C(=O)N[C@@H](CCSC)C(=O)N[C@@H](CCC(=O)O)C(=O)N[C@@H](CCCN=C(N)N)C(=O)N[C@H](C(=O)N[C@@H](CCC(=O)O)C(=O)N[C@@H](Cc1c[nH]c2ccccc12)C(=O)N[C@@H](CC(C)C)C(=O)N[C@@H](CCCN=C(N)N)C(=O)N[C@@H](CCCCN)C(=O)N[C@@H](CCCCN)C(=O)N[C@@H](CC(C)C)C(=O)N[C@@H](CCC(N)=O)C(=O)N[C@@H](CC(=O)O)C(=O)N[C@H](C(=O)N[C@@H](Cc1cnc[nH]1)C(=O)N[C@@H](CC(N)=O)C(=O)N[C@@H](Cc1ccccc1)C(=O)O)C(C)C)C(C)C` [PTH1-34], in data set [1], the “time stable in buffer” value was not above 2 days.
On to “NQEQVSPLYKNRSVSEIQLMHNLGKHLNSMERVEWLRKKLQDVHNF (Modified Parathyroid hormone (PHT), comprisig amino acids 1-34 of native PTH as well as a transglutaminase substrate domain and a plasmin-degradable sequence) [TGplPTH1-34]”, for which the “amount of endosteal bone formation (histomorphometry)” value in data set [2] (setting [4]) is “higher than with the other concentrations of TGplPTH1-34”. Also, the “rate of granule resorption (histomorphometry)” value in data set [2] (setting [4]) is “highest resorption rate”. The animals showing bridging entry in data set [2] (1 mg TGplPTH1-34/mL fibrin matrix, 8 weeks) is reported as “one”. The “animals healed showing stable, clinical unions” value in data set [2] (1 mg TGplPTH1-34/mL fibrin matrix, after 12 weeks) was 5 animals. In addition, the “animals showing bending of the plate” value in data set [2] (1 mg TGplPTH1-34/mL fibrin matrix, within the first four weeks) was “one”. Moreover, the “periosteal healing compared to negative control material” value in data set [2] (0.4 and 1 mg TGplPTH1-34/mL fibrin matrix) is recorded as “statistically stronger periosteal healing”. Besides, the “healing compared to autograft” value in data set [2] (0.4 and 1 mg TGplPTH1-34/mL fibrin matrix, 12 weeks) is on record as “equivalent to autograft”. Further, the “animals with unstable fracture site” value in data set [2] (12 weeks, plate removed, movement/torsion of the limb, TGplPTH1-34 at 1 mg/mL fibrin matrix, FIG. 4) is reported as “one”. The “periosteal healing response (radiographs)” value in data set [2] (doses between 0.4 and 2 mg TGplPTH1-34/mL fibrin matrix, every time point) is given as “much stronger periosteal healing response”. The “rates of endosteal bone formation and granule resorption” value in data set [2] (higher doses of TGplPTH1-34) is “lower rates of both endosteal bone formation and granule resorption”. Besides, the “stability of the defect at the endpoint” value in data set [2] (higher doses than about 1 mg TGplPTH1-34/mL fibrin matrix, 12 weeks) is “much lower stability”. Further, the “% healed at 6 months (Clinician's assessment)” value in data set [3] (0.133 mg TGplPTH1-34/ml fibrin matrix + SoC) is listed as 75.6% (34 of 45); in data set [3] (0.4 mg TGplPTH1-34/ml fibrin matrix + SoC, p = 0.084 vs SoC alone), 80.4%* (37 of 46); in data set [3] (1.0 mg TGplPTH1-34/ml fibrin matrix + SoC), 69.2% (27 of 39).
